Data: PubChem BioAssay AID1919008 (Molecular Pharmacology Branch, DTP, NCI, 2023)

Tested on: DMS-114 complex spheroids with HUVEC/MSC, growth % test/control
Assay: Anticancer human tumor DMS-114 cell line growth inhibition [AhR];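 further: spheroids exposed to agents for 7 days before readout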;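 on viability, T/C: 100% = DMSO vehicle control wells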
Details: for IC50: curve of first compound; for viability, T/C: stronger effect = lower value
Text: Multicellular complex tumor spheroid response to aryl hydrocarbon receptor antagonists in combination with a variety of drugs and investigational agents in selected tumor cell lines
The current study was undertaken to assess response to aryl hydrocarbon receptor antagonists in combination with standard-of-care drugs and investigational agents in solid tumor complex spheroid models. Complex spheroids include a stromal component modeled by human endothelial cells (HUVEC) and fibroblasts modeled by human mesenchymal stem cells (MSCs). The concentration ranges selected for each drug and investigational agent were based upon clinically achievable concentrations if the clinical Cmax of the agent was known.
Compounds. The drugs and investigational agents: BAY 2416964 (NSC825713), GNF351 (NSC835774), CH-223191 (NSC835775), CPI-455 (NSC825282), aza-TdCyd (NSC777586), decitabine (NSC127716), belinostat (NSC758774), entinostat (NSC756642), pevonedistat (NSC761192), tazemetostat (NSC777109), talazoparib (NSC765396), olaparib (NSC753686), selinexor (NSC780203), nedisertib (M3814, NSC802822), bortezomib (NSC756655), venetoclax (NSC766270), doxorubicin (NSC123127), elimusertib (BAY189344, NSC800525), ceralasertib (AZD6738, NSC777638), TAK-243 (NSC785004), alisertib (NSC759677), etoposide (NSC141540), topotecan (NSC609699), eribulin (NSC707389), gemcitabine (NSC613327), carboplatin (NSC241240), cisplatin (NSC119875), and SN-38 (NSC673596) were obtained from the National Cancer Institute (NCI) Developmental Therapeutics Program Chemical Repository (32). The FDA-approved anticancer drug set is available from the Developmental Therapeutics Program at https://dtp.cancer.gov/organization/dscb/obtaining/available plates.htm. […] The stock solutions were prepared in dimethyl sulfoxide (DMSO, Sigma-Aldrich, St. Louis, MO, cat. D2650), except for the platinum compounds which were prepared in saline (Quality Biological, Gaithersburg, MD, cat. 114-055-101), at 800-fold the tested concentration and stored at -70 degrees C prior to their use. All drugs and investigational agents were tested over a range starting from a high concentration at or near the clinical Cmax and decreasing in half-log increments. If the clinical Cmax for an agent had not been determined, the highest concentration tested was 10 microM (Table 1).
Cell Culture. All cells were maintained in an incubator at 37 degrees C and 5% CO2 with 95% humidity. The PDC lines were cultured according to standard operating procedures established by the NCI PDMR (https://pdmr.cancer.gov). Briefly, all PDCs were thawed and cultured in Matrigel-coated flasks prepared with a working solution of 1X Ham's F-12 nutrient mix, without supplementation (Invitrogen, Waltham, MA, cat. 11765054), 100 U/mL penicillin-streptomycin (Invitrogen, cat. 15140122), and 2.5% Matrigel (Corning Inc., Corning, NY, cat. 354248) for the first three passages. All PDCs were cultured in complete DMEM/F-12 media containing advanced DMEM/F-12 (Invitrogen, cat. 12634028), 4.9% defined fetal bovine serum, heat inactivated (HyClone Laboratories Inc., Logan, UT, cat. SH30070.03HI), 389 ng/mL hydrocortisone (Sigma-Aldrich, cat. H4001), 9.7 ng/mL human EGF recombinant protein (Invitrogen, cat. PHG0313), 23.4 microg/mL adenine (Sigma-Aldrich, cat. A2786), 97.3 U/mL penicillin-streptomycin (Invitrogen, cat. 15140122), 1.9 mM L-glutamine (Invitrogen, cat. 25030081), and 9.7 microM Y-27632 dihydrochloride (Tocris Bioscience, Bristol, United Kingdom, cat. 1254). The PDCs were cultured in complete DMEM/F12 media without 10 microM Y-27632 dihydrochloride for at least two passages prior to the screen. The established cell lines NCI-H1341 and […] were cultured in DMEM/F-12, HEPES (Invitrogen, cat. 11330032), 5% defined fetal bovine serum (HyClone Laboratories Inc., cat. SH30070.03), ITS premix universal culture supplement [insulin (5 microg/mL), transferrin (5 microg/mL), and selenious acid (5 ng/mL)] […]

[1] = second compound 0.1 µM, first compound 0.0316 µM
[2] = second compound 0.1 µM, first compound 0.1 µM
[3] = second compound 0.1 µM, first compound 0.316 µM
[4] = second compound 0.1 µM, first compound 1 µM
[5] = second compound 0.1 µM, first compound 3.16 µM
[6] = second compound 0.1 µM, first compound 10 µM
[7] = second compound 0.316 µM, first compound 0.0316 µM
[8] = second compound 0.316 µM, first compound 0.1 µM
[9] = second compound 0.316 µM, first compound 0.316 µM
[10] = second compound 0.316 µM, first compound 1 µM
[11] = second compound 0.316 µM, first compound 3.16 µM
[12] = second compound 0.316 µM, first compound 10 µM
[13] = second compound 1 µM, first compound 0.0316 µM
[14] = second compound 1 µM, first compound 0.1 µM
[15] = second compound 1 µM, first compound 0.316 µM
[16] = second compound 1 µM, first compound 1 µM
[17] = second compound 1 µM, first compound 3.16 µM
[18] = second compound 1 µM, first compound 10 µM
[19] = second compound 3.16 µM, first compound 0.0316 µM
[20] = second compound 3.16 µM, first compound 0.1 µM
[21] = second compound 3.16 µM, first compound 0.316 µM
[22] = second compound 3.16 µM, first compound 1 µM
[23] = second compound 3.16 µM, first compound 3.16 µM
[24] = second compound 3.16 µM, first compound 10 µM
[25] = second compound 10 µM, first compound 0.0316 µM
[26] = second compound 10 µM, first compound 0.1 µM
[27] = second compound 10 µM, first compound 0.316 µM
[28] = second compound 10 µM, first compound 1 µM
[29] = second compound 10 µM, first compound 3.16 µM
[30] = second compound 10 µM, first compound 10 µM

Row | SMILES | IC50 (second compound 0.1 µM) | IC50 (second compound 0.316 µM) | IC50 (second compound 1 µM) | IC50 (second compound 3.16 µM) | IC50 (second compound 10 µM) | viability, T/C [1] | viability, T/C [2] | viability, T/C [3] | viability, T/C [4] | viability, T/C [7] | viability, T/C [8] | viability, T/C [9] | viability, T/C [10] | viability, T/C [13] | viability, T/C [14] | viability, T/C [15] | viability, T/C [16] | viability, T/C [19] | viability, T/C [20] | viability, T/C [21] | further results
1 | COc1ccc([C@@H](O)c2cc(-c3ncnc4cc(N5CCOCC5)ccc34)c(F)cc2Cl)nn1 + CC(CO)NC(=O)c1cc(-c2ccc(Cl)cc2)nn(-c2cnn(C)c2)c1=O | > 10000 nM | > 10000 nM | > 10000 nM | > 10000 nM | > 10000 nM | 98.8% | 100% | 100% | 105% | 98.5% | 96.2% | 90.4% | 94.9% | 92% | 95.5% | 96.7% | 107% | 108% | 99.8% | 91.9% | viability, T/C [5]: 108%; viability, T/C [6]: 61%; viability, T/C [11]: 101%; viability, T/C [12]: 63.3%; viability, T/C [17]: 98.3%; viability, T/C [18]: 63.8%; viability, T/C [22]: 103%; viability, T/C [23]: 104%; viability, T/C [24]: 64.2%; viability, T/C [25]: 104%; viability, T/C [26]: 97.5%; viability, T/C [27]: 95.1%; viability, T/C [28]: 87.5%; viability, T/C [29]: 81.2%; viability, T/C [30]: 55.2%
2 | CC1COCCN1c1cc(-c2ccnn2C)c2ccnc(-c3ccn[nH]3)c2n1 (stereo not given) + CC(CO)NC(=O)c1cc(-c2ccc(Cl)cc2)nn(-c2cnn(C)c2)c1=O | 50.8 nM | 65 nM | 34.2 nM | 33.6 nM | 21.1 nM | 59.1% | 34.4% | 27.9% | 15.8% | 60.1% | 42.7% | 26.2% | 15.2% | 51.8% | 34.4% | 27.6% | 14.6% | 49.4% | 31.6% | 22.3% | viability, T/C (second compound 0.1 µM, first compound 0.00316 µM): 90.1%; viability, T/C (second compound 0.1 µM, first compound 0.01 µM): 82%; viability, T/C (second compound 0.316 µM, first compound 0.00316 µM): 93%; viability, T/C (second compound 0.316 µM, first compound 0.01 µM): 89.1%; viability, T/C (second compound 1 µM, first compound 0.00316 µM): 85.3%; viability, T/C (second compound 1 µM, first compound 0.01 µM): 94.4%; viability, T/C (second compound 3.16 µM, first compound 0.00316 µM): 84.8%; viability, T/C (second compound 3.16 µM, first compound 0.01 µM): 73.7%; viability, T/C [22]: 13.9%; viability, T/C (second compound 10 µM, first compound 0.00316 µM): 86.8%; viability, T/C (second compound 10 µM, first compound 0.01 µM): 63.2%; viability, T/C [25]: 42.2%; viability, T/C [26]: 29.6%; viability, T/C [27]: 24.1%; viability, T/C [28]: 14.8%
3 | COc1cc(Nc2ncc3c(n2)-c2ccc(Cl)cc2C(c2c(F)cccc2OC)=NC3)ccc1C(=O)O + CC(CO)NC(=O)c1cc(-c2ccc(Cl)cc2)nn(-c2cnn(C)c2)c1=O | < 31.6 nM | < 31.6 nM | < 31.6 nM | < 31.6 nM | < 31.6 nM | 24.8% | 25.1% | 63.5% | 53.1% | 28.4% | 25.6% | 58% | 72% | 25.8% | 23.3% | 63.6% | 58.3% | 26.2% | 21.2% | 65.6% | viability, T/C [5]: 69.2%; viability, T/C [6]: 54.8%; viability, T/C [11]: 63.7%; viability, T/C [12]: 65.5%; viability, T/C [17]: 61.4%; viability, T/C [18]: 59.8%; viability, T/C [22]: 62.3%; viability, T/C [23]: 73.6%; viability, T/C [24]: 64.6%; viability, T/C [25]: 25.6%; viability, T/C [26]: 24.2%; viability, T/C [27]: 50.6%; viability, T/C [28]: 61.5%; viability, T/C [29]: 58.9%; viability, T/C [30]: 66.9%
4 | CC(C)c1c(-c2ccccc2)nc2c(C#N)c[nH]n2c1=O + CC(CO)NC(=O)c1cc(-c2ccc(Cl)cc2)nn(-c2cnn(C)c2)c1=O | > 10000 nM | > 10000 nM | > 10000 nM | > 10000 nM | > 10000 nM | 93.8% | 95.8% | 93.8% | 95.7% | 96.8% | 98.5% | 101% | 98.9% | 93.7% | 100% | 89.6% | 97.7% | 103% | 96.6% | 95.1% | viability, T/C [5]: 113%; viability, T/C [6]: 108%; viability, T/C [11]: 110%; viability, T/C [12]: 113%; viability, T/C [17]: 97.3%; viability, T/C [18]: 103%; viability, T/C [22]: 94.6%; viability, T/C [23]: 92.3%; viability, T/C [24]: 105%; viability, T/C [25]: 103%; viability, T/C [26]: 105%; viability, T/C [27]: 96.1%; viability, T/C [28]: 104%; viability, T/C [29]: 99.5%; viability, T/C [30]: 113%
